From patent US12186297B2, “Compositions and methods for increasing lean-to-fat mass ratio” (AXCESS GLOBAL SCIENCES, LLC, priority 2020, dated 2025)

Test: Expected change in fat mass, muscle mass and lean-to-fat mass ratio in subjects following a training regimen (FIGS. 3, 4A-4C)
Type: in vivo
Details: FIG. 4A, set period of time (e.g., 1-3 months)
Excerpt: FIG. 4A illustrates expected change in fat mass over a set period of time (e.g., 1-3 months) for subjects following a training regimen and given different treatments of HMB only (HMB), BHB only (BHB), and a combination of the same amounts of HMB and BHB (HMB+BHB).
FIG. 4B illustrates expected change in muscle mass over a set period of time (e.g., 1-3 months) for subjects following a training regimen and given different treatments of HMB only (HMB), BHB only (BHB), and a combination of the same amounts of HMB and BHB (HMB+BHB).

Q: For CC(C)(O)CC(=O)O [HMB, beta-hydroxy-beta-methylbutyrate], which “expected change in fat mass” value is on record?
A: not expected to provide fat loss to any significant degree by itself
